According to article PMC6691347, “Design and Development of a Novel Peptide for Treating Intestinal Inflammation” (Frontiers in Immunology, 2019):

Assays:
RAW264.7 cells = assay: Cell viability assay (CCK-8); format: cell-based, Mouse; conditions: for cytotoxic activity on RAW264.7 macrophage cells: CCK-8, 24 h, among selected hybrid peptides and their parental peptides; for cell viability: RAW264.7 cells, lower doses of peptide, 24 h, CCK-8, OD450, 8 biological replicates
Procedure: The viability of peptide-treated RAW264.7 cells was determined using the Cell Counting Kit-8 (CCK-8) Assay Kit (Dojindo) ([42]). RAW264.7 cells were pre-seeded on a 96-well plate at a density of 3 × 10^4 cells/mL in 100 μL DMEM medium overnight. The cells were either treated with various concentrations of peptides or without peptides at 37°C and 5% CO2 for 24 h. Each well was incubated with 10 μL CCK-8 solution for 4 h in the darkness. Then, the absorbance at 450 nm was measured using a microplate reader. Cell viability was calculated as:
Cell viability (%)=(OD450 (sample)/OD450(control))×100%
where OD450(sample) is the absorbance at 450 nm of the cells with peptides treated and OD450(control) is the absorbance at 450 nm of the cells without peptides treated.

[1] = system: LPS-stimulated RAW264.7 cells; assay: ELISA of cytokine release from LPS-stimulated RAW264.7 cells; format: cell-based, Mouse; conditions: RAW264.7, 10 μg/mL peptide 1 h before 100 ng/mL LPS, 12 h, ELISA of supernatant; compared to the other tested peptides; n = 3
Procedure: (§1) RAW264.7 cells were treated with or without 10 μg/mL peptides for 1h before the addition of 100 ng/mL LPS and further incubation for 12 h at 37°C. Levels of tumor necrosis factor-alpha (TNF-α), interleukin-6 (IL-6), and IL-1β were detected in culture supernatant and jejunum, respectively. In addition, the level of interferon-gamma (IFN-γ) was detected in the jejunum. ELISA was performed using a commercial ELISA kit (eBioscience, San Diego, USA).

[2] = system: LPS-induced intestinal inflammation; assay: LPS-induced intestinal inflammation murine model; format: in vivo, C57/BL6 male mice
Procedure: Seventy-two C57/BL6 male mice (6–8 weeks of age) were purchased from Charles River (Beijing, China). Mice were maintained in a specific pathogen free (SPF) environment at 22 ± 1°C with relative 55 ± 10% humidity, and the assays were performed in conformity with the laws and regulations for live animal treatment at China Agricultural University.
The mice were randomly distributed into six groups (n = 12 each): control, LPS (E. coli, O111:B4, Sigma-Aldrich, USA) treatment, LL-37 pretreatment followed by LPS treatment (LL-37 + LPS), Tα1 pretreatment followed by LPS treatment (Tα1 + LPS), LTA pretreatment followed by LPS treatment (LTA + LPS). Different peptides (10 mg/kg mouse weight) were injected intraperitoneally once daily for 7 days, whereas an equal volume of sterile saline was injected intraperitoneally to the control and LPS-treated groups. On day 7, mice in LPS, LL-37 + LPS, Tα1 + LPS, and LTA + LPS groups were intraperitoneally injected with LPS (10 mg/kg mouse weight) 1h after saline or the peptides treatment, and the control group was intraperitoneally injected with an equal volume of saline. The mice were then euthanized by cervical dislocation 6 h after intraperitoneal injection of LPS or saline, and samples of the intestines were collected for analysis. The body weights of the mice were recorded before and after the experiment.
Intestinal tissues samples from the jejunum were fixed in 4% paraformaldehyde immediately after the mice were euthanized. After embedding, the tissues were sectioned (5 μm) using an RM2235 microtome (Leica) and stained with hematoxylin-eosin (H&E). Images were acquired using a DM3000 microscope. LPS-induced intestinal injury was evaluated using Chiu's score ([43]) according to changes of the villus and glands of the jejunal mucosa. Villus height and crypt depth were measured using CaseViewer software.
For immunohistochemical analysis of CD177^+, nonspecific binding sites were blocked with PBS containing 1% w/v BSA for 1 h. Anti-CD177^+ antibodies (Santa, USA) were added at a dilution of 1:100 and incubated overnight at 4°C. Samples were washed five times in PBS and treated with horse-radish peroxidase (HRP)-conjugated rabbit anti-goat IgG (JIR, USA) at ratio of 1:100; samples were left to incubate at 4°C for 1 h. After washing with PBS, 3,3′-diaminobenzidine (DAB; DAKO, USA) was added, and the slides were counterstained with Harris hematoxylin. Finally, the samples were dehydrated in an alcohol gradient (70–100%), and cleared in xylene. All slides were mounted in neutral balsam.
The apoptotic cells in the jejunal sections were detected via a commercial the terminal deoxynucleotidyl transferase mediated dUTP nick end labeling (TUNEL) staining kit according to the manufacturer's instruction (Roche, Indianapolis, IN, USA). The sections were co-stained with the DAPI (Servicebio, Wuhan, China). The number of apoptotic cells was counted in four to six randomly selected fields at 200 × magnification.
as §1
The activities of myeloperoxidase (MPO) in the jejunum were detected using ELISA kits (Boster Wuhan, China) according to the manufacturer's instructions.
Whole protein of intestinal tissues was obtained with the whole protein extraction kit (KeyGEN Biotech, Nanjing, China) according to the manufacturer's instructions. The protein concentration was measured via the BCA kit (KeyGEN Biotech, Nanjing, China). […]

[3] = Neutralization of LPS, Chromogenic End-point Tachypleus Amebocyte Lysate (CE TAL) assay; format: biochemical, E. coli
Procedure: The neutralization of LPS by the peptides was assessed using a quantitative Chromogenic End-point Tachypleus Amebocyte Lysate (CE TAL) assay via the QCL-1000 kit (Xiamen, China). A constant concentration of LPS (1.0 EU/mL final concentration; E. coli, O111:B4, Sigma-Aldrich, USA) was incubated with various concentrations of the peptides or polymyxin B (PMB) (0–64 μg/mL final concentration; Sigma-Aldrich, USA) at 37°C for 15 min in the wells of […] sterile microliters plates. The 100 μL aliquots concentrate of limulus amebocyte lysate reagent was added and incubated at 37°C for 6 min. On the addition of chromogenic substrate, yellow color appeared. The reactions were stopped by adding 25% HCl, and then the absorbances measured at 540 nm ([45]).

[4] = ELISA, peptide 10 mg/kg i.p. pretreatment, LPS 10 mg/kg, LTA compared to Tα1- or LL-37-pretreated groups, n = 12
[5] = jejunal tissues, western blot, LTA pretreatment vs LPS, n = 3
[6] = jejunum, western blot, LTA 10 mg/kg i.p. pretreatment, LPS 10 mg/kg

For “IGKEFKRIVQRIKDFLRNLVPRTERKDVT [LTP, hybrid peptide LL-37-TP5]”, the “cytotoxic activity on RAW264.7 macrophage cells” value (RAW264.7 cells) was “lowest cytotoxic activity” and the cell viability (RAW264.7 cells) was “greater than 100%”.
In the case of “IGKEFKRIVQRIKDFLRNLVPRTEKEKKEVVE [LTA, hybrid peptide LL-37-Tα1]”, the “cytotoxic activity on RAW264.7 macrophage cells” value (RAW264.7 cells) is reported as “lowest cytotoxic activity”, the cell viability (RAW264.7 cells) is reported as “greater than 100%” and the “release of IL-1β” value [1] is reported as “remarkable decrease”. For the same sequence, the “release of IL-6” value [1] was “remarkable decrease”, the “release of TNF-α” value [1] was “remarkable decrease” and the “plasma LPS level” value ([2]; CE TAL test of mouse plasma, LTA 10 mg/kg i.p. pretreatment, LPS 10 mg/kg) was “significantly reduced the plasma LPS level”. For the same sequence, the “MPO activity in the jejunum” value ([2]; ELISA kit, peptide 10 mg/kg i.p. pretreatment, LPS 10 mg/kg, compared to the LPS-treated group, n = 12) was “markedly decreased MPO activity”, the “IFN-γ concentration in the jejunum” value [2, 4] was “significantly lower” and the “IL-1β concentration in the jejunum” value [2, 4] was “significantly lower”. For the same sequence, the “IL-6 concentration in the jejunum” value [2, 4] was “significantly lower”, the “TNF-α concentration in the jejunum” value [2, 4] was “significantly lower” and the “infiltration of CD177+ neutrophils into jejunal tissue” value ([2]; immunohistochemistry, peptide 10 mg/kg i.p. pretreatment, LPS 10 mg/kg) was “reduced this effect to the basal level”. The “apoptosis index (TUNEL staining)” value ([2]; jejunal sections, peptide 10 mg/kg i.p. pretreatment, LPS 10 mg/kg, compared to the LPS-treated group) was “significantly reduced the apoptosis index”, the “phosphorylation of IKK-β” value [2, 5] was “decreased” and the “phosphorylation of IκB-α” value [2, 5] was “decreased”. For the same sequence, the “phosphorylation of NF-κB” value [2, 5] was “decreased”, the “Chiu's score” value ([2]; jejunum H&E, mice, peptide 10 mg/kg i.p. once daily for 7 days, LPS 10 mg/kg i.p., 6 h after LPS, LPS group 3.33 ± 0.58, mean ± SD) was 0.67 ± 0.58 and the “expression of Occludin” value [2, 6] was “significantly higher than that in the LPS-group”. For the same sequence, the “expression of ZO-1” value [2, 6] was “significantly higher than that in the LPS-group”, the “villus height to crypt depth (V/C) ratio” value ([2]; jejunum, mice, peptide 10 mg/kg i.p. once daily for 7 days, LPS 10 mg/kg i.p., 6 h after LPS, LPS group 2.35 ± 0.389, mean ± SD) was 4.19 ± 0.364 and the “body weight (weight loss after LPS)” value ([2]; mice, peptide 10 mg/kg i.p. once daily, then LPS 10 mg/kg i.p. 1 h after last dose, n = 12) was “recovered their weight loss rapidly”. For the same sequence, the “concentration that completely neutralizes LPS” value ([3]; LPS 1.0 EU/mL, 37°C 15 min, CE TAL, n = 3) was ≥ 8 µg/mL, the “inhibition of the activation of tachypleus amebocyte lysate (LPS neutralization)” value ([3]; LPS 1.0 EU/mL, peptide 0–64 μg/mL, 37°C 15 min, n = 3) was “dose-dependent manner” and the “concentration that almost completely neutralizes LPS” value ([3]; in vitro, CE TAL, statement of the discussion) was 8 µg/mL.
